The target in series [1] is T1, SpCas9 (Streptococcus pyogenes serotype M1, UniProt Q99ZW2). The experiment in a line: mKate2 expression (knockdown) assay. The series is classed as cell-based. The following applies: for activity in mKate2 assay: HEK293 cells, 1.5-5 μM, 24 h. The protocol: mKate2 expression assay. Approximately 8,000 cells/well were plated in a 96-well format 24 h before transiently transfected with 100 ng of either CgRNA (Addgene Plasmid #64955) or T1gRNA (Addgene Plasmid #62717) plasmids using lipofectamine 2000 (Life Technologies). Transfected cells were allowed to grow in the indicated amount of compound or DMSO for 24 h. Cells were then fixed using 4% paraformaldehyde and imaged with the HCS NuclearMask™ Blue Stain (Life Technologies) as the nuclear counter-staining agent. Imaging was performed with an IXM 137204 ImageXpress Automated High Content Microscope (Molecular Devices) at 20× magnification under two excitation channels (blue and red) with 9 acquiring sites per well. Images were analyzed in the MetaXpress software to determine the % mKate2 positive cells and the % NHEJ was calculated following a reported protocol and plotted using GraphPad Prism 6. The Z′-value was calculated following the formula: […]

Series [2] concerns the target T1, SpCas9. The experiment in a line: mCherry-GFP NHEJ assay. Particulars: HEK293T cells; 2-10 μM; 24 h. The series is classed as cell-based. The protocol:
NHEJ assay. Approximately 8,000 cells/well were plated in a 96-well format 24 h before transiently transfected with a total 100 ng of DN66 (mCherry-TAG-GFP reporter) and DN78 (SpCas9 and gRNA) plasmids (1:1) using lipofectamine 2000 (Life Technologies) 3. Transfected cells were allowed to grow in the indicated amount of compound or DMSO for 24 h. Cells were then fixed using 4% paraformaldehyde and imaged with the HCS NuclearMask™ Blue Stain (Life Technologies) as the nuclear counter-staining agent. Imaging was performed with an IXM 137204 ImageXpress Automated High Content Microscope (Molecular Devices) at 20× magnification under three excitation channels (blue, green and red) with 9 acquiring sites per well. Images were analyzed in the MetaXpress software to determine the % NHEJ and the data were plotted using GraphPad Prism 6. The Z′-value was calculated following the formula: […]

Series [3] has as its system S. aureus RN4220 strain. Briefly: Bacterial resistance study against phage (CRISPR-immunity, OD600 growth curves). The following applies: 5-20 μM; for blockage of CRISPR-immunity: sensitization of immune bacterial cells to phage: OD600 over 16 hours, phage MOI 1. Type of series: cell-based. The protocol:
(§1) Bacterial study. Plasmid pRH248 harboring SpCas9, tracrRNA and a single-spacer array ([…]) (SEQ ID 13) No. targeting phage (DNM474 was constructed via BsaI cloning onto pDB114 as described in Heler et al 6. Plate reader growth curves of bacteria infected with phage were conducted as described previously with minor modifications 7. Overnight cultures were diluted 1:100 into 2 ml of fresh BHI supplemented with appropriate antibiotics and 5 mM CaCl2) and grown to an OD600 of ˜0.2. Immune cells carrying pRH248 were diluted with cells lacking CRISPR-Cas in a 1:10,000 ratio. Following a 15-minute pre-incubation with DMSO or with varying amounts of inhibitors (5-20 μM), the cultures were infected with <DNM474 at an initial MOI of 1. To produce plate reader growth curves, 200 μL of infected cultures, normalized for OD600, were transferred to a 96-well plate in triplicate. OD600 measurements were collected every 10 minutes for 16 hours. Similarly, growth curves to evaluate the toxicity of the compounds at 20 μM (FIG. 32) were conducted on cultures lacking CRISPR in the absence of phage.
as §1, with “NO:38)” for “13) No.”, “DNM474” for “(DNM474”, “al^6.” for “al 6.”, “modifications^7.” for “modifications 7.”, “DNM474” for “<DNM474”, “Similarly, growth curves to evaluate the toxicity of the compounds at 20 μM (FIG. 32) were conducted on cultures lacking CRISPR in the absence of phage.” left out

Series [4] can be described thus: Solubility in PBS determined by mass spectroscopy. Type of series: physicochemical. The following applies: aqueous buffer, 24 h incubation at room temperature, read-out: solubility: no detectable aggregation up to. The protocol: FIG. 15—The solubility of BRD7087 compound in PBS as determined by mass spectroscopy after 24 h of incubation at room temperature. Compounds Antipyrine and Clotrimazole were used as positive controls.
FIG. 59. The solubility of BRD7087 compound in PBS as determined by Mass spectroscopy after 24 h of incubation at room temperature. Compounds Antipyrine and Clotrimazole have been used as the positive controls.

The subject of series [5] is S. aureus RN4220 strain. Briefly: Toxicity study of compounds in bacterial culture (no phage). Particulars: 20 μM; 16 h; inhibitor alone. Type of series: cell-based. The protocol:
FIG. 79. Toxicity study of compounds in bacterial culture. Bacterial growth study in the presence of the compound. Bacterial cell S. aureus RN4220 strain was allowed to grow either in the presence of DMSO or 20 μM of compound BRD7087 or BRD5779 over 16 h. The experiment was performed in three technical replicates.
as §1, with “Following a 15-minute pre-incubation with DMSO or with varying amounts of inhibitors (5-20 μM), the cultures were infected with <DNM474 at an initial MOI of 1.” left out, “OD600 measurements were collected every 10 minutes for 16 hours. Similarly, growth curves to evaluate the toxicity of the compounds at 20 μM (FIG. 32) were conducted on cultures lacking CRISPR in the absence of phage.” left out
Bacterial study. […] Plate reader growth curves of bacteria infected with phage were conducted as described previously with minor modifications^7. […] To produce plate reader growth curves, 200 μL of infected cultures, normalized for OD600, were transferred to a 96-well plate in triplicate. […]

A further series concerns HEK293T cells. The experiment in a line: Cell viability assay (ATP content), HEK293T cells. Particulars: up to 20 μM, 24 h. The series is classed as cell-based. The protocol: FIG. 23—Cell viability assay (ATP content) of […] cells in the presence of compounds. Measurement of ATP content of HEK293T cells upon incubating with BRD7087 and BRD5779 (5-20 μM) for 24 h. Error bars represent ±S.D. from technical replicates (n=3).
FIG. 67. Cell viability assay (ATP content) of HEK293T cells in the presence of compounds. Measurement of ATP content of HEK293T cells upon incubating with BRD7087 and BRD5779 (5-20 μM) for 24 h. Error bars represent ±S.D. from technical replicates (n=3).

Data on two compounds can be found in patent US11760984B2, “CRISPR protein inhibitors” (THE BROAD INSTITUTE, INC., priority 2017, dated 2023).

As usually defined, the solubility is the concentration that dissolves in the medium under given conditions. As usually defined, the IC50 is the concentration at which inhibition is half-maximal. Read a low IC50 as greater potency in that assay.

≈ marks a conversion by molar mass, not a printed value. Entries after “also recorded” stand apart in the source; their conditions may differ.

T1 sequence (Q99ZW2 whole entry): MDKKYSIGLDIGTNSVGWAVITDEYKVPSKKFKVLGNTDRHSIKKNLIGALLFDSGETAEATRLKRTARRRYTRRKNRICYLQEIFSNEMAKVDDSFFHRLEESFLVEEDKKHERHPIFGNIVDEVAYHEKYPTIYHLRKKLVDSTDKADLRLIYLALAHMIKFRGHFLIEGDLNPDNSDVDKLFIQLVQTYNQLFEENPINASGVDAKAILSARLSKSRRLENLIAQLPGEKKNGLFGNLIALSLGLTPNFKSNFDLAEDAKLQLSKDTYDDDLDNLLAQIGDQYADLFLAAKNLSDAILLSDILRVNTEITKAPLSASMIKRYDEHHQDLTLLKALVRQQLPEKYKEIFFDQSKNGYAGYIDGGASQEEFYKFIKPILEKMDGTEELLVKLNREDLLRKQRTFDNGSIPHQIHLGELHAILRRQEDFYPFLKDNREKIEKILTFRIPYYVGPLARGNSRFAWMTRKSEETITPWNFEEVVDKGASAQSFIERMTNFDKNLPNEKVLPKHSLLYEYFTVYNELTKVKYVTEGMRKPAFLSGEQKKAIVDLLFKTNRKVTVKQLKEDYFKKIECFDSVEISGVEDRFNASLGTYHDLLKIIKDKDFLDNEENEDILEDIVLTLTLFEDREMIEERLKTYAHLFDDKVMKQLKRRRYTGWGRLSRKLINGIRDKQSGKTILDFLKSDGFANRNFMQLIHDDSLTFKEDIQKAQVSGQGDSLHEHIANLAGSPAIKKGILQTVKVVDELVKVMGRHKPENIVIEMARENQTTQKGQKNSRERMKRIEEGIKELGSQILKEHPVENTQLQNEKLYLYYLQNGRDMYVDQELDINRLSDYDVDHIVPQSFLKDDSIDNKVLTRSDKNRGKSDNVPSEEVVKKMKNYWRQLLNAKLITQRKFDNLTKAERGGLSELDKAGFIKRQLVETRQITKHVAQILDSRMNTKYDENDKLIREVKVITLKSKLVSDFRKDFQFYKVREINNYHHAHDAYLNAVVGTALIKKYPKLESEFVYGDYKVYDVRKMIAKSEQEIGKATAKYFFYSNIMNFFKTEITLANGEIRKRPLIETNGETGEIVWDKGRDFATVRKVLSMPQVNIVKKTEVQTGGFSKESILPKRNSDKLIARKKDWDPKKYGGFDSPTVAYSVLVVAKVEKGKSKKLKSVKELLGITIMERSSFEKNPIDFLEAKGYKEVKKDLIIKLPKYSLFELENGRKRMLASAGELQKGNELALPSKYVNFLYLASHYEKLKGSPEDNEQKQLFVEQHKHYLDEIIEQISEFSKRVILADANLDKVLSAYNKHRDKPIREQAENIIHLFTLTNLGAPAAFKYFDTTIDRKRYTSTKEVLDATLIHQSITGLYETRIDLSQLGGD

Turning to `COc1ccc(-c2ccc3c(c2)[C@H]2[C@H](CCN2Cc2ccncc2)[C@@H](CO)N3)cc1` [BRD5779, ((3aR,4S,9bR)-8-(4-Methoxyphenyl)-1-(pyridin-4-ylmethyl)-2,3,3a,4,5,9b-hexahydro-1H-pyrrolo[3,2-c]quinolin-4-yl)methanol], on SpCas9 [1], the “activity in mKate2 assay” value is reported as “Dose-dependent recovery of the mKate2 signal”. Besides, the “inhibition of SpCas9-mediated NHEJ” value against SpCas9 [2] is recorded as “Dose-dependent inhibition of SpCas9-mediated NHEJ; also recorded: active”. For the same compound, in the series with S. aureus RN4220 strain [3], the “blockage of CRISPR-immunity: sensitization of immune bacterial cells to phage” value was “able to sensitize the immune bacterial cells against target phage in a dose-dependent manner; also recorded: dose-dependent blockage of CRISPR-Cas9 based immunity”. Besides, in series [4], the solubility at 24 h is about 75 µM (≈ 30.1 µg/mL). Besides, in the series with S. aureus RN4220 strain [5], the “toxicity to bacteria in the absence of phage” value is listed as “non-toxic in the absence of phage”. Besides, in the series with HEK293T cells, the “cytotoxicity: cellular ATP-levels” value is “did not significantly alter the cellular ATP-levels”.

Consider `OC[C@H]1Nc2ccc(-c3cccc(F)c3)cc2[C@H]2[C@@H]1CCN2Cc1ccncc1` [BRD7087, ((3aR,4S,9bR)-8-(3-Fluorophenyl)-1-(pyridin-4-ylmethyl)-2,3,3a,4,5,9b-hexahydro-1H-pyrrolo[3,2-c]quinolin-4-yl)methanol], for which, on SpCas9 [1], the half-maximal inhibitory concentration (IC50) is about 5 µM and the “activity in mKate2 assay” value is “Dose-dependent recovery of the mKate2 signal; also recorded: more active than BRD5779”. For the same compound, the “inhibition of SpCas9-mediated NHEJ” value against SpCas9 [2] is on record as “Dose-dependent inhibition of SpCas9-mediated NHEJ; also recorded: active”. Besides, in the series with S. aureus RN4220 strain [3], the “activity in phage assay compared with BRD5779” value is reported as “higher activity” and the “blockage of CRISPR-immunity: sensitization of immune bacterial cells to phage” value is on record as “able to sensitize the immune bacterial cells against target phage in a dose-dependent manner; also recorded: dose-dependent blockage of CRISPR-Cas9 based immunity”. The solubility at 24 h in series [4] was about 75 µM (≈ 29.2 µg/mL). The “toxicity to bacteria in the absence of phage” value in the series with S. aureus RN4220 strain [5] is given as “non-toxic in the absence of phage”. For the same compound, the “cytotoxicity: cellular ATP-levels” value in the series with HEK293T cells is recorded as “did not significantly alter the cellular ATP-levels”.
